Test results: ChEMBL document CHEMBL1667765, “Syntheses, antiproliferative activity and theoretical characterization of acitretin-type retinoids with changes in the lipophilic part” (2011)
The source made the active and inactive calls. No cut-off for these calls is given here.

How the values were obtained:
MCF7 [1] = experiment: Antiproliferative activity against human MCF7 cells expressing estrogen receptor assessed as cell growth inhibition 50 uM after 72 hrs by WST-1 assay relative to control; assay type: functional
MCF7 [2] = experiment: Induction of apoptosis in human MCF7 cells expressing estrogen receptor assessed as increase of PARP cleavage at 10^-5 M after 4 hrs by Western blotting; assay type: functional, cell-based
MCF7 [3] = experiment: Induction of apoptosis in human MCF7 cells expressing estrogen receptor assessed as increase of PARP cleavage at 10^-5 M after 9 hrs by Western blotting; assay type: functional, cell-based
MCF7 [4] = experiment: Antiproliferative activity against human MCF7 cells expressing estrogen receptor assessed as cell growth inhibition 5 uM after 72 hrs by WST-1 assay relative to control; assay type: functional
MCF7 [5] = experiment: Antiproliferative activity against human MCF7 cells expressing estrogen receptor after 72 hrs by WST-1 assay; assay type: functional, cell-based
MCF7 [6] = experiment: Antiproliferative activity against human MCF7 cells expressing estrogen receptor at 10 uM after 72 hrs by WST-1 assay; assay type: functional; settings: MCF7, 72 h
MCF7 [7] = experiment: Antiproliferative activity against human MCF7 cells expressing estrogen receptor after 72 hrs by MTT assay; assay type: functional, cell-based
MCF7 [8] = experiment: Cell cycle arrest in human MCF7 cells expressing estrogen receptor at 10^-5 M after 9 to 48 hrs using propidium iodide staining by FACS analysis; assay type: functional, cell-based
[9] = target: RAC-alpha serine/threonine-protein kinase (Homo sapiens) (UniProt P31749); experiment: Activation of Akt in human MCF7 cells expressing estrogen receptor at 10^-5 M after 4 hrs by Western blotting; assay type: functional, cell-based
[10] = target: RAC-alpha serine/threonine-protein kinase (Homo sapiens) (UniProt P31749); experiment: Activation of Akt in human MCF7 cells expressing estrogen receptor at 10^-5 M after 9 hrs by Western blotting; assay type: functional, cell-based

RAC-alpha serine/threonine-protein kinase (Homo sapiens), sequence (P31749 whole entry): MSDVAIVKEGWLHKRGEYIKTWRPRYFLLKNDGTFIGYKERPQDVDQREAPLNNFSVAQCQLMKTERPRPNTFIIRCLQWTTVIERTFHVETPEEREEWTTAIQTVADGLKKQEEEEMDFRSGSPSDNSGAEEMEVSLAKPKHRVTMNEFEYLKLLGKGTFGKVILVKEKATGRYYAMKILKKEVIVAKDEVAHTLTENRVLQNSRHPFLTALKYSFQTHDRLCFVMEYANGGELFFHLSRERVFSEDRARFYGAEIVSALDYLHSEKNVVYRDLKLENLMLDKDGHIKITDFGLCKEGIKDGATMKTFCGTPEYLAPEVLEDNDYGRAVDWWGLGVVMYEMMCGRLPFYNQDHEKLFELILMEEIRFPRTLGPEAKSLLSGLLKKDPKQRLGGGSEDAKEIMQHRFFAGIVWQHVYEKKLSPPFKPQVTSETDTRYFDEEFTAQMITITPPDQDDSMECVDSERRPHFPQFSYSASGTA

**Q.** Which “inhibition (INH)” value (MCF7 [1]) does the source give for CC1=C(/C=C/C(C)=C/C=C/C(C)=C/C(=O)O)C(C)(C)CCC1 [TRETINOIN] here?
**A.** 3.1%

**Q.** COc1ccc2cc(/C(C)=C/C=C/C(C)=C/C(=O)O)ccc2c1 was tested. Which “inhibition (INH)” value (MCF7 [1]) did it give?
**A.** -32%

**Q.** With CC(/C=C/C=C(\C)c1ccc2ccc3cccc4ccc1c2c34)=C\C(=O)O as the molecule, how does the “inhibition (INH)” value (MCF7 [1]) read?
**A.** 8%

**Q.** Which results are given for CN[C@@H]1C[C@H]2O[C@@](C)([C@@H]1OC)n1c3ccccc3c3c4c(c5c6ccccc6n2c5c31)C(=O)NC4?
**A.** Activity (MCF7 [2]): Active; Activity (MCF7 [3]): Active

**Q.** Which “inhibition (INH)” value (MCF7 [4]) does the source give for CC(/C=C/c1ccc(C(F)(F)F)cc1C(F)(F)F)=C\C=C\C(C)=C\C(=O)O here?
**A.** 13.9%

**Q.** And the “inhibition (INH)” value (MCF7 [1])?
**A.** 6%

**Q.** With COc1cc(OC)c(/C=C/C(C)=C/C=C/C(C)=C/C(=O)O)c(OC)c1 as the molecule, how does the inhibition (MCF7 [5]) read?
**A.** Active

**Q.** What about the inhibition at 10 µM (MCF7 [6]) of the same molecule?
**A.** 52%

**Q.** What about the inhibition (MCF7 [7]) of the same molecule?
**A.** Active

**Q.** What about the Activity (MCF7 [2]) of the same molecule?
**A.** inactive

**Q.** What about the Activity (MCF7 [3]) of the same molecule?
**A.** inactive

**Q.** What about the Activity (MCF7 [8]) of the same molecule?
**A.** inactive

**Q.** What about the Activity [9] of the same molecule?
**A.** inactive

**Q.** And the Activity [10]?
**A.** inactive

**Q.** And the “inhibition (INH)” value (MCF7 [1])?
**A.** -53%

**Q.** With CC(/C=C/c1ccc2ccccc2c1)=C\C=C\C(C)=C\C(=O)O as the molecule, how does the “inhibition (INH)” value (MCF7 [1]) read?
**A.** -25%

**Q.** Which “inhibition (INH)” value (MCF7 [1]) does the source give for COc1ccc(/C=C/C(C)=C/C=C/C(C)=C/C(=O)O)cc1OC here?
**A.** -30%

**Q.** How did the inhibition (MCF7 [5]) turn out when COc1cc(C)c(/C=C/C(C)=C/C=C/C(C)=C/C(=O)O)c(C)c1C was run?
**A.** Dose-dependent effect

**Q.** With CC(/C=C/c1ccc(N(C)C)cc1)=C\C=C\C(C)=C\C(=O)O as the molecule, how does the “inhibition (INH)” value (MCF7 [1]) read?
**A.** 5%

**Q.** What does the source list for CC(/C=C/c1ccc2ccc3cccc4ccc1c2c34)=C\C=C\C(C)=C\C(=O)O?
**A.** inhibition (INH) (MCF7 [4]): 5.2%; inhibition (INH) (MCF7 [1]): 4%

**Q.** How did the “inhibition (INH)” value (MCF7 [4]) turn out when CC(/C=C/c1cc(F)c(F)cc1F)=C\C=C\C(C)=C\C(=O)O was run?
**A.** 2%

**Q.** And the “inhibition (INH)” value (MCF7 [1])?
**A.** 10%

**Q.** Which “inhibition (INH)” value (MCF7 [1]) does the source give for CC(/C=C/C=C(\C)c1ccc2cc3ccccc3cc2c1)=C\C(=O)O here?
**A.** 15%
